Measured values reported in US8709804B2, “Method for drug screening and characterization by calcium flux” (Cedars-Sinai Medical Center, priority 2004, dated 2014).

Legend:
AtT-20 cells [1] = assay: Cell viability control after 45 minutes of imaging and nimodipine: calcium response to high K+ depolarization; format: cell-based, mouse; settings: 45 minutes of imaging and nimodipine treatment up to maximum dose, FIG. 4B
Description: Cells were stained with Calcium Green, imaged and exposed to increasing drug doses for 45 minutes. […] First, untreated AtT-20 cells were imaged over a forty-five (45) minute time span with continuous recording at 3 fps. The amplitude of calcium oscillations was measured and plotted over time. […] The averaged oscillation amplitudes of an untreated cell sample over a fifty (50) minute interval for all cells is shown in FIG. 3B. […] As such, experiments were not recorded longer than 45 minutes.

AtT-20 cells [2] = assay: Dose response of spontaneous calcium oscillations by confocal Calcium Green imaging of single cells; format: cell-based, mouse
Description: Sigmoidal dose response curves were fit to each individual cell and the average response over the total population was calculated.
The treated cell samples were imaged using asymmetric imaging methods and a temporal resolution of 3 fps for up to 45 minutes total recording time. In particular, illumination (excitation) was diffraction limited while the detection (emission) was almost wide-field by opening the confocal detection pinhole but leaving the excitation pinhole closed. This allowed for increased detection efficiency, while still suppressing background fluorescence. […]
The Attofluor cell culture chamber was placed inside a PenCon temperature controlled incubator at 37° C. mounted on a DMIRB/E inverted microscope (obtained from Leica Microsystems; Wetzlar, Germany). […] The digital temperature readout of the incubator was checked with a calibrated mercury thermometer to confirm the values within 0.2° C. […]

COCCOC(=O)C1=C(C)NC(C)=C(C(=O)OC(C)C)C1c1cccc([N+](=O)[O-])c1 (stereo not drawn) [nimodipine, 1,4-Dihydro-2,6-dimethyl-4-(3-nitrophenyl)-3,5-pyridinedicarboxylic acid 2-methyloxyethyl 1-methylethyl ester]
Toxicity of prolonged exposure to cells (AtT-20 cells [1]): non-toxic | IC50 (AtT-20 cells [2]; Mus musculus, AtT20, 5 min, average over all individual cells, FIG. 5B, 5 minute interval per dose, read-out: IC50 of the averaged dose response of calcium oscillation amplitude): 23 nM | Concentration giving complete inhibition of baseline spontaneous calcium oscillations (BSCOs) (AtT-20 cells [2]; representative cell, FIG. 4C, concentration increased in 10-fold increments): 100 nM
